According to paper PMC11357990, “A first-in-class selective inhibitor of EGFR and PI3K offers a single-molecule approach to targeting adaptive resistance” (Nature Cancer, 2024):

What was measured:
EGFR = EGFR (Homo sapiens, UniProt P00533); test: biochemical; parameters: Km ATP; Purified kinase inhibition, Z'-LYTE (HER, mTOR, DNA-PK) or Adapta (PI3K), ATP at Km apparent
Protocol: (§1) IC50 values were determined at a concentration of ATP corresponding to the Km apparent for that kinase.

mTOR = molecular target: T1, mTOR (Homo sapiens, UniProt P42345); test: biochemical; parameters: Purified kinase inhibition, Z'-LYTE (HER, mTOR, DNA-PK) or Adapta (PI3K), ATP at Km apparent
T1 construct: Km ATP
Protocol: as §1

HER2 = molecular target: T2, HER2 (Homo sapiens, UniProt P04626); test: biochemical; parameters: Purified kinase inhibition, Z'-LYTE (HER, mTOR, DNA-PK) or Adapta (PI3K), ATP at Km apparent
T2 construct: gene ERBB2; Km ATP
T2 sequence (P04626 whole entry): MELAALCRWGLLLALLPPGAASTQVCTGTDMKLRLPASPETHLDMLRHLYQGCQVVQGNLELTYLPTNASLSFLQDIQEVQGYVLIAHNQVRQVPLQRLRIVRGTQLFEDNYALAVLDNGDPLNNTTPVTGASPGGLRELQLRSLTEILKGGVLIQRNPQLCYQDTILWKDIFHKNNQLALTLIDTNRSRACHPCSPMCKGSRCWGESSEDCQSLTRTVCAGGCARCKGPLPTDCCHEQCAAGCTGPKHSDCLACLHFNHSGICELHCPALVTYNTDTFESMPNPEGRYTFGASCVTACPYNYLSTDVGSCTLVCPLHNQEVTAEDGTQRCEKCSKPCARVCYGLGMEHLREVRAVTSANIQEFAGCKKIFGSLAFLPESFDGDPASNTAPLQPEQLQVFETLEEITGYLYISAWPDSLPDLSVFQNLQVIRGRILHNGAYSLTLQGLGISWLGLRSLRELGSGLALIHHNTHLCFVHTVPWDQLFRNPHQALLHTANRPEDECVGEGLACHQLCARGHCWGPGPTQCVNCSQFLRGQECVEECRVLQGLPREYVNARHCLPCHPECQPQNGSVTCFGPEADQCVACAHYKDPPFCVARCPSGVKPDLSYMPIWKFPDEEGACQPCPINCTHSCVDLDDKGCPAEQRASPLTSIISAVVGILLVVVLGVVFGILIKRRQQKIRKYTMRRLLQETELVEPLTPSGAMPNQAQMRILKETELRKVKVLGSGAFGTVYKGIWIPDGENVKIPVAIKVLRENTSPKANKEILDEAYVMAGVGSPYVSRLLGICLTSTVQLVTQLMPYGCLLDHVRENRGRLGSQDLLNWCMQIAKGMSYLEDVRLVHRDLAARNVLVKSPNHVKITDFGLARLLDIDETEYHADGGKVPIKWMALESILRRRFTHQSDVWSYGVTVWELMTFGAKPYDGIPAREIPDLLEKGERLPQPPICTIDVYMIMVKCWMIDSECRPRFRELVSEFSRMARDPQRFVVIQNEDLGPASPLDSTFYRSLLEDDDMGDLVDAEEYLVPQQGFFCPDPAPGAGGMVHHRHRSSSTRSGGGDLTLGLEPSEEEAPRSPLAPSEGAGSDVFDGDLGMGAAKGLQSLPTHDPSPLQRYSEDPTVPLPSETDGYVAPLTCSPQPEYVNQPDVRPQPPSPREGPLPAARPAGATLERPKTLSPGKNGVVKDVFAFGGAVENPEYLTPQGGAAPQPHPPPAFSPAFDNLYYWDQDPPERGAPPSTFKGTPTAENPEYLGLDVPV
Protocol: as §1

HER4 = molecular target: T3, HER4 (Homo sapiens, UniProt Q15303); test: biochemical; parameters: Purified kinase inhibition, Z'-LYTE (HER, mTOR, DNA-PK) or Adapta (PI3K), ATP at Km apparent
T3 construct: gene ERBB4; Km ATP
T3 sequence (Q15303 whole entry): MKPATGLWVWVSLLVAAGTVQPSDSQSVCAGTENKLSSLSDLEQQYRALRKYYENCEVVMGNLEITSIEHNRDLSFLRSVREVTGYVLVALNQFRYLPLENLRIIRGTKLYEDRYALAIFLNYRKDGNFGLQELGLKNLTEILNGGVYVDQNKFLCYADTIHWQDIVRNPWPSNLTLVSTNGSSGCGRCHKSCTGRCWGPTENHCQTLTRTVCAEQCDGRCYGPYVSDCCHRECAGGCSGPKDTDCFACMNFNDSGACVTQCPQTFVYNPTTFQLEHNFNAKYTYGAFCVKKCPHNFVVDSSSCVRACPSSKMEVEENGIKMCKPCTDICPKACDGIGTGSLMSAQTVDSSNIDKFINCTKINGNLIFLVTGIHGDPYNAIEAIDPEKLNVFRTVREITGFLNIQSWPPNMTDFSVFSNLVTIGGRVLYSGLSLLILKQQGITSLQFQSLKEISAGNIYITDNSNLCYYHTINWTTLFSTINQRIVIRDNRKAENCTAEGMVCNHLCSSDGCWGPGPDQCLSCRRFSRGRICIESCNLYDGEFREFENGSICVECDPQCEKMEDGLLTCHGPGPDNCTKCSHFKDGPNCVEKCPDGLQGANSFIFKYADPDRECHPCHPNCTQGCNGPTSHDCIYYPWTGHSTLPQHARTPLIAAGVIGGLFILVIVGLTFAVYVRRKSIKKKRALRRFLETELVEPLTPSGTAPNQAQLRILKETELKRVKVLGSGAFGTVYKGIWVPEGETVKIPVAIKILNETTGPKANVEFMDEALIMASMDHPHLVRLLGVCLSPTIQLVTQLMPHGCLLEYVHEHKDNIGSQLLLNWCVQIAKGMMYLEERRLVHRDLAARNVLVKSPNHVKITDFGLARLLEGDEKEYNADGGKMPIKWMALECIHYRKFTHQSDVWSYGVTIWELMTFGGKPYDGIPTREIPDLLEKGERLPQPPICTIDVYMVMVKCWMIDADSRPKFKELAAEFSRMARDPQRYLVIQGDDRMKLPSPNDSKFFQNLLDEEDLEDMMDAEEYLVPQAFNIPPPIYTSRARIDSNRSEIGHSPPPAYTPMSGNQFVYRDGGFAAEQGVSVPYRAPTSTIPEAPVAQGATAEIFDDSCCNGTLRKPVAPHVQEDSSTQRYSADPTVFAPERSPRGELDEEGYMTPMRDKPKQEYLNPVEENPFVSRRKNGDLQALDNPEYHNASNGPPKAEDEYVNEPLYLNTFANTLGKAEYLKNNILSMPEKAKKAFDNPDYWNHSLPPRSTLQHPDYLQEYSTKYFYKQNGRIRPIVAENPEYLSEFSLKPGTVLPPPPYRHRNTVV
Protocol: as §1

PI3Kγ [1] = molecular target: T4, PI3Kγ (Homo sapiens, UniProt P48736); test: biochemical; parameters: gene PIK3CG; Km ATP; Purified kinase inhibition, Z'-LYTE (HER, mTOR, DNA-PK) or Adapta (PI3K), ATP at Km apparent
T4 sequence (P48736 whole entry): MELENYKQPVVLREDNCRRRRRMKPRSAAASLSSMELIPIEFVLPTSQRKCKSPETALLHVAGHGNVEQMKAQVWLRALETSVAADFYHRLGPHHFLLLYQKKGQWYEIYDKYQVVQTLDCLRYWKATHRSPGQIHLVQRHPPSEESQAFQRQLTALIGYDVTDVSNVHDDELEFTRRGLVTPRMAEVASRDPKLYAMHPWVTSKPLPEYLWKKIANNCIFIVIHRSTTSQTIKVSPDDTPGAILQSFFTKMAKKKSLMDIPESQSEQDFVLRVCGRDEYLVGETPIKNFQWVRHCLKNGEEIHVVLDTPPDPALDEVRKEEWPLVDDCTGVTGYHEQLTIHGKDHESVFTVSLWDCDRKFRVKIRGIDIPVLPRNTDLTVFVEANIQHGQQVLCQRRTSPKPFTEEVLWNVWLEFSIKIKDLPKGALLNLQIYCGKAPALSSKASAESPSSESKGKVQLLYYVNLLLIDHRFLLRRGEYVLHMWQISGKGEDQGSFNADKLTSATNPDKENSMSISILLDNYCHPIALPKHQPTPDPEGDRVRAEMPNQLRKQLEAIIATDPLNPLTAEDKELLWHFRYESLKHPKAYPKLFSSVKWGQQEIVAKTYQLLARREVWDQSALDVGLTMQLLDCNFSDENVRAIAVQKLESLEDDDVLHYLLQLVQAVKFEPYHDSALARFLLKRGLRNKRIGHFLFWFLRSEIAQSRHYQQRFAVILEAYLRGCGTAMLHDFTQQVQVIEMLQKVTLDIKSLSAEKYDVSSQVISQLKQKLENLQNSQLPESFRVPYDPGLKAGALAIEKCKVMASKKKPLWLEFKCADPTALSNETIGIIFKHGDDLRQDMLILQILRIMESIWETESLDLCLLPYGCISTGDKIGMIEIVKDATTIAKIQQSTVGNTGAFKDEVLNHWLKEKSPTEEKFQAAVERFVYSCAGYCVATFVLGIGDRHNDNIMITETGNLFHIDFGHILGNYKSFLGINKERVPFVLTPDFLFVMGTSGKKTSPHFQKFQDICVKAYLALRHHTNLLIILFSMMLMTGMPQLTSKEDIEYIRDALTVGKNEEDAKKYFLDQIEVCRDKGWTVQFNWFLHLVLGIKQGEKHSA
Protocol: as §1

PI3Kδ = molecular target: T5, PI3Kδ (Homo sapiens, UniProt O00329); test: biochemical; parameters: Purified kinase inhibition, Z'-LYTE (HER, mTOR, DNA-PK) or Adapta (PI3K), ATP at Km apparent
T5 construct: gene PIK3CD; Km ATP
Protocol: as §1

PI3Kβ = molecular target: T6, PI3Kβ (Homo sapiens, UniProt P42338); test: biochemical; parameters: Purified kinase inhibition, Z'-LYTE (HER, mTOR, DNA-PK) or Adapta (PI3K), ATP at Km apparent
T6 construct: gene PIK3CB; Km ATP
Protocol: as §1

PI3Kα = PI3Kα (Homo sapiens, UniProt P42336); test: biochemical; parameters: gene PIK3CA; Km ATP; Purified kinase inhibition, Z'-LYTE (HER, mTOR, DNA-PK) or Adapta (PI3K), ATP at Km apparent
Protocol: as §1

PI3Kγ [2] = molecular target: T4, PI3Kγ; test: biochemical kinase assay at ATP Km apparent; parameters: gene PIK3CG

Sequence of EGFR (P00533 whole entry): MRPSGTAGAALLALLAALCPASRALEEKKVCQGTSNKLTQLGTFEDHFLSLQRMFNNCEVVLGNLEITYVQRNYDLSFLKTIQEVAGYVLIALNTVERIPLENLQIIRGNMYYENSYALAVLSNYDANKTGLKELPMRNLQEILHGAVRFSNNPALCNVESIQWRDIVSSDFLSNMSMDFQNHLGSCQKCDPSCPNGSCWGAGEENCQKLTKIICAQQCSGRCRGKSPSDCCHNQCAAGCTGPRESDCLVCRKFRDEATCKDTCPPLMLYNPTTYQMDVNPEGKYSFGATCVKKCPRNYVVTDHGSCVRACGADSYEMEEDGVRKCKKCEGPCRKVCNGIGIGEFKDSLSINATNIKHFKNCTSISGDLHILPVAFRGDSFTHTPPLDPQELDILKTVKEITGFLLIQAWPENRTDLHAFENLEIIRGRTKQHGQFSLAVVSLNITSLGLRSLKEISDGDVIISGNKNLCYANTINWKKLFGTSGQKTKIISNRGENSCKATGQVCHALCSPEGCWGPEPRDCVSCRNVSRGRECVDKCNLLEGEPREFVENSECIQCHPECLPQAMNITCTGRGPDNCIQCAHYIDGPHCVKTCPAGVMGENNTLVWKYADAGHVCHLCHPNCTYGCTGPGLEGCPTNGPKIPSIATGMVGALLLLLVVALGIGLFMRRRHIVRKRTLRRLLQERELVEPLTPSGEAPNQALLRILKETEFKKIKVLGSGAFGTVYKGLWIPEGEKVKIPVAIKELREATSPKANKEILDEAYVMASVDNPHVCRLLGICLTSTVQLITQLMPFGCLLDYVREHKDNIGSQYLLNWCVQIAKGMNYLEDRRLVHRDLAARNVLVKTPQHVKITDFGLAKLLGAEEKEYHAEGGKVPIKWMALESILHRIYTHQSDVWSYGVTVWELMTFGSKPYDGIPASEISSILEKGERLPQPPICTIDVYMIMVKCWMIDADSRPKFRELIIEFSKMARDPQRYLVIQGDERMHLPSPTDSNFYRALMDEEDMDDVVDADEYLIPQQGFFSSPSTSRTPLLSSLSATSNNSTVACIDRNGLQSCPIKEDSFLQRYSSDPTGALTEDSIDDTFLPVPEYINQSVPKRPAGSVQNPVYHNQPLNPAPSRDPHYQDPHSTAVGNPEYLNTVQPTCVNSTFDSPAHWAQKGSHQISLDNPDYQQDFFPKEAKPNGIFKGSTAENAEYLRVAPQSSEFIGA

IC50 (EGFR)	IC50 (mTOR)	IC50 (HER2)	IC50 (HER4)	IC50 (PI3Kγ [1])	IC50 (PI3Kδ)	IC50 (PI3Kβ)	IC50 (PI3Kα)	IC50 (PI3Kγ [2])	SMILES
> 10 µM	2.94 µM	> 10 µM	> 10 µM						Cc1nc(NC(=O)N2CCC[C@H]2C(N)=O)sc1-c1ccnc(C(C)(C)C(F)(F)F)c1 [Alpelisib]
> 10 µM	0.0188 µM	> 10 µM	> 10 µM						COc1c(OCCCN2CCOCC2)ccc2c1N=C(NC(=O)c1cnc(N)nc1)N1CCN=C21 [Copanlisib]
	> 10 µM	0.0261 µM	0.221 µM	> 10 µM	> 10 µM	> 10 µM	> 10 µM		CCN1CCN(Cc2ccc(-c3cc4c(N[C@H](C)c5ccccc5)ncnc4[nH]3)cc2)CC1 [NVP-AEE788]
> 10 µM		> 10 µM	> 10 µM					0.00062 µM	COc1ncc(-c2ccc3nccc(-c4ccnnc4)c3c2)cc1NS(=O)(=O)c1ccc(F)cc1F [Omipalisib]
